Test results taken from ChEMBL document CHEMBL1155460, “Prediction of acetylcholinesterase inhibitors and characterization of correlative molecular descriptors by machine learning methods” (Eur J Med Chem, 2010).

Target: Acetylcholinesterase (Homo sapiens, UniProt P22303)
Sequence (P22303 whole entry): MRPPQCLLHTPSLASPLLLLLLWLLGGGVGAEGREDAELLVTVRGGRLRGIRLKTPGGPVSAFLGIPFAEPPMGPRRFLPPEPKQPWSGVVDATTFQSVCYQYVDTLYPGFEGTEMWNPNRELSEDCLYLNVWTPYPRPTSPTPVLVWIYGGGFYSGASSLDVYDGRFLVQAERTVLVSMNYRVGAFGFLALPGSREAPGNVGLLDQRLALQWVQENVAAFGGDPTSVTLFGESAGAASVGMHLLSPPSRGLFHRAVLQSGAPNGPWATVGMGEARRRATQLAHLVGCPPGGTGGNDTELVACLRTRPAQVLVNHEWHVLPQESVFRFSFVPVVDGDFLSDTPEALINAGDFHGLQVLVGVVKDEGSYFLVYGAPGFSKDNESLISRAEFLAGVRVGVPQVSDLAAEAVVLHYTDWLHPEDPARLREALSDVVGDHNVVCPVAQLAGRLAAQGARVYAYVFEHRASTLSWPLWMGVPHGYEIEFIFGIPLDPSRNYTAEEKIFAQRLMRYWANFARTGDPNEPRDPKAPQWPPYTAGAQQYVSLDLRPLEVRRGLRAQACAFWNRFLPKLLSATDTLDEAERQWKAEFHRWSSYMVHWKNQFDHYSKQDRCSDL

Structure (SMILES)	IC50
O=C1c2ccc([N+](=O)[O-])cc2C(=O)N1CCC1CCN(Cc2ccc(Cl)cc2)CC1	240 nM
CC(=O)N(C)CCC1CCN(Cc2ccccc2)CC1	660 nM
O=C(c1ccc([N+](=O)[O-])cc1)N(CCC1CCN(Cc2ccccc2)CC1)c1ccccc1	5.4 nM
COc1cccc(N(CCC2CCN(Cc3ccccc3)CC2)C(C)=O)c1	46 nM
O=C(Nc1ccc2c(c1)C(=O)N(CCC1CCN(Cc3ccccc3)CC1)C2=O)c1ccccc1	1.2 nM
O=C(c1ccc(F)cc1)N(CCC1CCN(Cc2ccccc2)CC1)c1ccccc1	18 nM
O=C(C1CCCCC1)N(CCC1CCN(Cc2ccccc2)CC1)c1ccccc1	9400 nM
COc1ccc2c(c1)C(=O)N(CCC1CCN(Cc3ccccc3)CC1)C2=O	8 nM
CN1CCC(CCN2C(=O)c3ccc([N+](=O)[O-])cc3C2=O)CC1	6800 nM
CC(=O)N(CCC1CCN(Cc2ccccc2)CC1)c1cccc(F)c1	65 nM
CC(=O)N(CCC1CCN(Cc2ccccc2)CC1)c1ccncc1	108 nM
COc1ccc(N(CCC2CCN(Cc3ccccc3)CC2)C(C)=O)cc1	700 nM
CCC(=O)N(CCC1CCN(Cc2ccccc2)CC1)c1ccccc1	830 nM
COc1ccc(C(=O)N(CCC2CCN(Cc3ccccc3)CC2)c2ccccc2)cc1	590 nM
O=C(CCC1CCN(Cc2ccccc2Cl)CC1)c1ccc2c(c1)CCN2	76 nM
Cc1cccc(CN2CCC(CCC(=O)c3ccc4c(c3)CCN4)CC2)c1	50 nM
COc1ccccc1CN1CCC(CCC(=O)c2ccc3c(c2)CCN3)CC1	812 nM
CCCN1CCCCc2ccc(C(=O)CCC3CCN(Cc4ccccc4)CC3)cc21	1330 nM
O=C(CCC1CCN(Cc2ccccc2)CC1)c1ccc2c(c1)N(Cc1ccccc1)CC2	853 nM

Structure (SMILES)	IC50
O=C(CCC1CCN(Cc2cccc([N+](=O)[O-])c2)CC1)c1ccc2c(c1)NCCCC2	390 nM
O=C(CCC1CCN(Cc2cccc(F)c2)CC1)c1ccc2c(c1)NCCCC2	145 nM
CCN1CCc2cc(C(=O)CCC3CCN(Cc4ccccc4)CC3)ccc21	11 nM
O=C(CCC1CCN(Cc2cccc(F)c2)CC1)c1ccc2c(c1)CCN2	16 nM
COc1ccccc1CN1CCC(CCC(=O)c2ccc3c(c2)NCCCC3)CC1	2650 nM
CCN1CCCCc2ccc(C(=O)CCC3CCN(Cc4ccccc4)CC3)cc21	376 nM
CN1CCc2cc(C(=O)CCC3CCN(Cc4ccccc4)CC3)ccc21	10 nM
O=C1c2ccc([N+](=O)[O-])cc2C(=O)N1CC1CCN(Cc2ccccc2)CC1	3000 nM
O=C1c2ccccc2CN1CCC1CCN(Cc2ccccc2)CC1	98 nM
COc1ccc(CN2CCC(CCN3C(=O)c4ccc([N+](=O)[O-])cc4C3=O)CC2)cc1	440 nM
CC(=O)N(CCC1CCN(Cc2ccccc2)CC1)c1ccc(F)cc1	205 nM
O=C(c1ccncc1)N(CCC1CCN(Cc2ccccc2)CC1)c1ccccc1	64 nM
CC(=O)N(CCC1CCN(Cc2ccccc2)CC1)c1ccccc1	52 nM
CCCCCCNC(=O)Oc1ccc2c(c1)[C@]1(C)CCN(CC)[C@@H]1C2	45 nM
O=C1c2ccc([N+](=O)[O-])cc2C(=O)N1C1CCN(Cc2ccccc2)CC1	27000 nM
O=C(CCC1CCN(Cc2cccc(Cl)c2)CC1)c1ccc2c(c1)NCCCC2	333 nM
CC(=O)Nc1ccc2c(c1)C(=O)N(CCC1CCN(Cc3ccccc3)CC1)C2=O	2.8 nM
O=C(c1ccccc1)N(CCC1CCN(Cc2ccccc2)CC1)c1ccccc1	35 nM
COc1cccc(CN2CCC(CCC(=O)c3ccc4c(c3)NCCCC4)CC2)c1	847 nM

Structure (SMILES)	IC50
CCCCCN1CCc2cc(C(=O)CCC3CCN(Cc4ccccc4)CC3)ccc21	47 nM
COc1cccc(CN2CCC(CCC(=O)c3ccc4c(c3)CCN4)CC2)c1	2680 nM
O=C(CCC1CCN(Cc2ccccc2)CC1)c1ccc2c(c1)NCCC2	164 nM
O=C(CCC1CCN(Cc2ccccc2F)CC1)c1ccc2c(c1)CCN2	43 nM
Cc1cccc(CN2CCC(CCC(=O)c3ccc4c(c3)NCCCC4)CC2)c1	224 nM
O=C(CCC1CCN(Cc2ccccc2)CC1)c1ccc2c(c1)NCC2	113 nM
CCCN1CCc2cc(C(=O)CCC3CCN(Cc4ccccc4)CC3)ccc21	22 nM
O=C(CCC1CCN(Cc2ccccc2)CC1)c1ccc2c(c1)NCCCCC2	127 nM
CN1CCCCc2ccc(C(=O)CCC3CCN(Cc4ccccc4)CC3)cc21	81 nM
O=C(CCC1CCN(Cc2cccc(Cl)c2)CC1)c1ccc2c(c1)CCN2	59 nM
O=C(CCC1CCN(Cc2ccc(F)cc2)CC1)c1ccc2c(c1)CCN2	89 nM
CCCCN1CCc2cc(C(=O)CCC3CCN(Cc4ccccc4)CC3)ccc21	29 nM
O=C(CCC1CCN(Cc2ccccc2)CC1)c1ccc2c(c1)N(Cc1ccccc1)CCCC2	3140 nM
O=C(CCC1CCN(Cc2ccccc2)CC1)c1ccc2c(c1)CCN2	20 nM
O=C(CCC1CCN(Cc2ccccc2)CC1)c1ccc2c(c1)CCCCN2	125 nM
O=C(CCC1CCN(Cc2ccc(Cl)cc2)CC1)c1ccc2c(c1)CCN2	6360 nM
O=C(CCC1CCN(Cc2ccc(F)cc2)CC1)c1ccc2c(c1)NCCCC2	393 nM
CN1CCCc2ccc(C(=O)CCC3CCN(Cc4ccccc4)CC3)cc21	36 nM
